Measured values taken from patent US20120053182A1, “METHODS OF ALLEVIATING OR TREATING SIGNS AND/OR SYMPTOMS ASSOCIATED WITH MODERATE TO SEVERE PARKINSON'S DISEASE” (SCHERING CORPORATION, priority 2009, published 2012).
Like-named read-outs stand apart in the source and are kept apart here.

Key:
[1] = Pharmacokinetics after oral administration to healthy human volunteers; assay type: in vivo; conditions: composition providing about 5 mg, serum; for AUC: human, po, 5 mg, healthy human volunteers
[2] = test system: patients suffering from Parkinson's disease; experiment: Clinical trial in patients with moderate to severe Parkinson's disease receiving L-dopa therapy; assay type: in vivo, human
Method: A clinical trial was carried out using 253 patients suffering from Parkinson's disease and receiving L-dopa therapy.
These patients were continued on their L-dopa therapy and randomized to receive in addition either a placebo (n=49), a composition administered orally BID in an amount providing 1 mg of the compound of Formula I (n=49), a composition administered orally BID in an amount providing 2 mg of the compound of Formula I (n=49), a composition administered orally BID in an amount providing 5 mg of the compound of Formula I (n=49), or a composition administered orally BID in an amount providing 10 mg of the compound of Formula I (n=57). This treatment was continued for 12 weeks while the patients kept a diary recording the “Off-time” periods, “On-time” periods (recording whether “On-time” was accompanied by dyskinesia or troubling dyskinesia) and their total amount of sleep time. These patients were also interviewed clinically and were evaluated as well in accordance with the UPDRS rating scale, as well as for when, and the duration of, sleep attacks experienced during the study. Blood chemistry was followed clinically at regular intervals.
Moreover, with reference to FIG. 3, assessment of patients was made using the Unified Parkinson's Disease Rating Scale (UPDRS) following several weeks of administration. […] With reference to FIG. 3, for example, UPDRS, part III scores were improved by showing a decrease of at least about 3 points below the baseline score at the start of the study.

[3] = Bioavailability by age or sex in healthy human volunteers; assay type: in vivo; conditions: composition used in the patient study
[4] = target: T1, A2a receptors (Homo sapiens, UniProt P29274); experiment: PET scan receptor site occupancy study in healthy human volunteers; assay type: in vivo
T1 construct: PET scans of a human brain were obtained; from tissue; host or cells: brain of living healthy human volunteers (in vivo PET)
Method: In a separate study with healthy human volunteers, and with reference to FIG. 5, PET scans of a human brain were obtained after IV administration to a subject of a composition intravenous administration of the compound of Formula II which had been labeled with ^11C-radio-isotope and then after an interval subsequent intravenous administered the compound of Formula I.
This study was carried out using 18 subjects. Capsules containing a composition providing the compound of Formula I (unlabelled) in amounts of 10, 50, or 200 mg were also administered to a subset of test subjects prior to injection of the radio-labeled compound of Formula II. Using the information obtained from the PET scan regarding the extent, location, and inhibition of radiotracer binding permitted calculation of binding potentials for the compound of Formula I. The test subjects were also evaluated for plasma levels of the compound of Formula I during the study. […] These studies also indicate that the compound of Formula I has a selectivity for the A2a receptor site of 20,000:1 relative to binding at A1, A2b, and A3 receptor sites. This study is consistent with a therapeutic level of plasma concentration being provided by administering a composition orally which provides a human subject to whom it is administered with from at least about 2 mg of the compound of Formula I to about 10 mg of the compound of Formula I and preferably 5 mg of the compound of Formula I. It is believed that BID dosing of a composition providing from about 5 mg to about 50 mg of the compound of Formula I will provide at least about 50% receptor site occupancy for at least about 12 hours/day in at least about 80% of the human population and at least about 80% receptor site occupancy for at least about 18 hours/day in at least about 75% of the population.

[5] = test system: akathisia induced by administration of Haldol; experiment: Haldol-induced akathisia in healthy volunteers; assay type: in vivo, human; conditions: composition providing about 10 mg, FIG. 4
Description: It is believed that a composition which provides an effective amount of the compound of Formula I will also prevent feelings of restlessness, of example, Haldol-induced akathesia.

[6] = at least about 2 mg BID oral, 12 weeks, with L-dopa, patient diary

T1 sequence (P29274 whole entry): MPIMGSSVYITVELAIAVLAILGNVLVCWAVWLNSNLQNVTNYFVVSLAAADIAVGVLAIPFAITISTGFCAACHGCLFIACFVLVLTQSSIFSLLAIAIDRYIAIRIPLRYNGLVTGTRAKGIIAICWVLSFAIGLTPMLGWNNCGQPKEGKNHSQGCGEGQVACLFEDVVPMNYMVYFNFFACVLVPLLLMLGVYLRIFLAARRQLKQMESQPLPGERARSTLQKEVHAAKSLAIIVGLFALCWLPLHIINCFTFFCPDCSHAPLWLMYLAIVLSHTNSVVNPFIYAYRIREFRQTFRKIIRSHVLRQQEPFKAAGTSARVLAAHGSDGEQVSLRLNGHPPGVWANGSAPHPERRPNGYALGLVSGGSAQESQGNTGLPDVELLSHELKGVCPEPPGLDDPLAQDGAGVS

## COCCOc1ccc(N2CCN(CCN3N=CC4c5nc(-c6ccco6)nn5C(N)=NC43)CC2)cc1 (centres unmarked) [compound of Formula I]
[1]; average across healthy human volunteers
  Cmax: 112 to 130 ng/mL
[1]; AUC to time serum level drops below detectable limit, read-out: AUC(tf)
  AUC: 336 to 457 ng·h/mL
[1]; read-out: AUC values measured from t=0 to 1 hr.
  AUC: 352 to 478 ng·h/mL
[2]; 1, 2, 5 or 10 mg BID oral, 12 weeks, versus placebo group
  reports of common adverse events: Parkinsonism; somnolence; dyskinesia: no more frequency than was reported in the placebo group
[2]; amount sufficient to maintain steady state serum level of at least about 50 ng/ml
  UPDRS part IV scores: not accompanied by an increase
[2]; amount sufficient to maintain steady state serum level of at least about 50 ng/ml, FIG. 3, 2 hours post dose
  decrease of UPDRS part III score below baseline: at least 3 points
[2]; at least about 2 mg BID oral, 12 weeks, with L-dopa
  proportion of "On-time" with dyskinesia or other motor complications: no rise
[2]; [6]
  periods of "Off-time": decrease
  periods of "On-time": improvement
[2]; at least about 5 mg BID oral
  average daily patient "Off-time" periods: decrease
  average daily patient "On-time" periods: increase
  objectional side effects, for example, dyskinesia, somnolence, or insomnia: not accompanied by objectional side effects
[2]; at least about 5 mg BID oral, throughout the course of the study
  UPDRS score: improvement in UPDRS score which is maintained throughout the course of the study
[2]; effective amount, patient assessment by clinicians
  induction of sleep attacks: not associated with induction of sleep attacks
[2]; from about 2 mg BID to about 10 mg BID, FIG. 2
  patient sleep patterns (total daily sleep time): does not significantly adversely effect patient sleep patterns
[3]
  differences in bioavailability (AUC or Cmax) between groups divided by age or sex: no statistically significant differences
[4]; BID dosing about 5 mg to about 50 mg, for at least about 12 hours/day in at least about 80% of the human population
  receptor site occupancy: at least 50%
[4]; BID dosing about 5 mg to about 50 mg, for at least about 18 hours/day in at least about 75% of the population
  receptor site occupancy: at least 80%
[4]; human brain, 11C-labelled compound of Formula II as radiotracer
  brain distribution by PET scan: high concentrations of the compound of Formula I in regions of the brain known to contain high levels of A2a receptors
[4]; human, plasma concentrations in excess of about 50 ng/ml, believed to be Emax
  receptor occupancy at 0.05 µg/mL: ~90%
[4]; on average, PET, humans
  plasma concentration at 50% receptor site occupancy: 6 ng/mL
[4]; plasma concentration levels exceeding about 25 ng/mL in humans
  receptor site occupancy: high level of receptor site occupancy
[5]
  suppression of Haldol-induced akathisia: successful in suppressing akathisia
